Like-named read-outs stand apart in the source and are kept apart here.
Tests used:
[1] = system: Human fibroblastoid M1 cells; assay: NO production (fluorometric nitrate/nitrite DAN assay) in M1 cells stimulated with bead-bound peptide; type: cell-based; conditions: for Block of NO induction by shared epitope-expressing peptide 65–79*0401: then bead-bound 65–79*0401 for 1–30 min
Protocol: DKCLA [SEQ ID NO: 16] binds to calreticulin, and inhibits binding of shared epitope-expressing peptides which trigger pro-oxidative signaling (FIG. 9). In follow up experiments the functional activity of DKCLA [SEQ ID NO: 16] was determined by measuring its effect on NO production by shared epitope-expressing peptides (i.e. 65–79*0401) and a control peptide, 65–79*0402. Human fibroblastoid M1 cells were pre-incubated overnight with or without 50 µg/ml of DKCLA. Subsequently culture medium was changed to NO assay buffer (20 mM Tris, pH7.6, 100 mM NaCl, 0.1 mM EDTA), and cells were stimulated for 1–30 min with Sepharose bead-bound peptide 65–79*0401 or control peptide 65–79*0402. At different time points, cultures were collected and NO levels were measured. Briefly, supernatants were collected and spun down to remove cell debris. Nitrate in the supernatant were first transformed to nitrite by incubation with nitrate reductase for 60 min in room temperature. Then, DAN was added to yield fluorescent 2,3-naphthotriazole. Fluorescence was measured with a Perkin-Elmer Fusion™ Universal Microplate Analyzer, using a wavelength excitation of 375 nm and an emission wavelength of 415 nm.
The nitrite and nitrate assay was a modified method from fluorometric determination of nitrite [Thomas Pet al. Anal. Biochem., 214:11–16, (1993), Miles AM et al. Methods 7: 40–47, (1995)]. Cell culture medium was changed to NO assay buffer (20mM Tris, pH7.6, 100 mM NaCl, 0.1 mM EDTA) and was treated by bead bound peptides. After treatment, supernatant was spun down to remove cell debris. Nitrate in the supernatant was first transformed to nitrite by incubation with Nitrate Reductase for 60min in room temperature. Then 2,3-diaminonaphthalene (DAN) was added to yield fluorescent 2,3-naphthotriazole. Fluorescence was measured by a FUSION™ Universal Microplate Analyzer with excitation at 375 nm and emission at 415 nm.

[2] = system: human fibroblastoid line M1 cells; conditions: M1 cells preincubated overnight with 50 μg/ml synthetic pentapeptide
Text: To further determine the signaling pathways involved in DNA repair induction, the inventors used the Trevigen CometAssay™ kit (Cat. No. 4250-50-K). The CometAssay is a single-cell gel electrophoresis method that can measure a variety of types of DNA damage, and repair of damage, in individual cells. The assay is based on the alkaline lysis of labile DNA at sites of damage. The unwound, relaxed DNA is able to migrate out of the cell during electrophoresis and can be visualized by SYBR Green staining.
To quantify DNA damage, cells were collected and three parallel samples were processed (a negative control, a DNA damage control (H2O2) and a sample subjected to H2O2 following exposure to various modulators of the cAMP signaling pathway). Cells are then washed in PBS. The washed cells are combined with molten low-melting agarose (Trevigen Cat. No. 4250-50-02) and transferred to a CometSlide™ (Trevigen Cat. No. 4250-100-03). The slides are immersed in lysis buffer for 30 min, on ice, in the dark. The slides are then treated with alkali buffer for 20 to 60 min at room temperature in the dark. The slides are then electrophoresed in buffer for 10 min at 20 volts, then fixed in methanol and ethanol. The slides are then stained with SYBR green (Trevigen Cat. No. 4250-50-05) solution and fluorescently imaged with a Diagnostic Instruments digitized camera, mounted on a Nikon Eclipse E400 microscope. Scion Image software is used to quantitate the comet tail intensity. Each data point is derived from tail fluorescent intensity determination in 50–100 individual cells. Data is presented as % DNA repair (the percent decrement in tail fluorescence intensity in agonist or antagonist-treated cells, relative to the intensity recorded in cells treated with H2O2 only)±SEM. (R.U.s)
To directly examine that possibility, cells were incubated overnight with synthetic peptides corresponding to the region contained within amino acids 65–79 and their ability to mount DNA repair activity in response to cAMP-elevating agents was determined. M1 cells were preincubated overnight with 50 μg/ml of synthetic peptides corresponding to the region surrounding the third allelic hypervariable region (aa 65–79) of each of the following DRβ chains: *0401 (65–79*0401) [SEQ ID NO: 5], *0402 (65–79*0402) [SEQ ID NO: 7], *0403 (65–79*0403) [SEQ ID NO: 9] or *0404(65–79*0404) [SEQ ID NO: 10]. At the end of the preincubation, cells were collected, washed and 2CA-induced DNA repair was determined as above. Table 3 (above) lists the different third allelic hypervariable region peptides used in the entire study disclosed here.
A modified method as described previously by Auger et al. [Nature Med 2:306–310 1996] was used. Briefly, cyanogen bromide activated Speharose 4B (1.5 ml) was washed with 1 mM HCl and incubated with peptides in 0.1 M NaHCO3 and 0.5 M NaCl (pH 8) buffer overnight at 4° C. For each peptide, 5 mg was used per milliliter of Sepharose. Free Sepharose groups were blocked with 0.2 M glycine (pH 8) for 2 hours at room temperature. Columns were washed at 4° C. with the following buffers: 0.1 M NaHCO3, 0.5 M NaCl (pH 8) buffer, then 0.5 M CH3COONa (pH 4) buffer and finally PBS at pH 7.5. M1 cells were plated at a density of 0.5×10^6 cells per well (6 well plate) in 10% FBS DMEM medium until 70–80% confluence. Prior to incubation with peptides, cultures were changed to serum-free DMEM medium, then evenly overlaid with 50 μg bead conjugated peptides, and incubated for the indicated period. Soluble peptides were added overnight to M1 cells at a concentration of 50 μg/ml.

[3] = M1 cells pre-incubated overnight with 50 µg/ml

Substance	Effect on baseline NO levels [1, 3]	Block of NO induction by shared epitope-expressing peptide 65–79*0401 [1, 3]	Impact on NO levels with control peptide 65–79*0402 ([1]; bead-bound control peptide 65–79*0402)	Inhibition of cAMP-dependent (2CA-induced) DNA repair induction / genoprotective pathway by pentapeptide [2]	Inhibition of cAMP-dependent (2CA-induced) DNA repair induction / genoprotective pathway by pentapeptide ([2]; listed as #7)
DKCLA [Asp Lys Cys Leu Ala]	no measureable effect	blocked NO induction	no impact	biologically inactive	failed to do so
Gln Lys Arg Ala Glu (QKRAE)	–	did not inhibit 65–79*0401-triggered NO production	–	failed to do so	–

From patent publication US7208154B2, “Methods and compositions for the treatment of MHC-associated conditions” (Regents of the University of Michigan, priority 2002, dated 2007)
